In PMC7156458, “Synthetic biology based construction of biological activity-related library of fungal decalin-containing diterpenoid pyrones” (Nature Communications, 2020):
“And” between values parts separate entries of the source, which are not always exact repeats. Equal entries are not always repeated. Where two headings read alike, the source gives them in different places.

Key:
[1] = cytotoxicity in Drosophila l(2)mbn cells; assay type: cell-based; conditions: Drosophila, l(2)mbn cells (larval blood cell-derived)
Procedure: (§1) We screened the DDPs on the Drosophila assay system for cytotoxicity, inhibitory activity of innate immune signalling and insecticidal activity. The cytotoxicity of the DDPs was evaluated using two cell lines, embryonic macrophage-derived DL1 cells[58]–[60] and larval blood cell-derived l(2)mbn cells, and their IC50 values are listed in Supplementary Table 23.

[2] = system: l(2)mbn cells; test: cytotoxicity in Drosophila l(2)mbn cells; assay type: cell-based; conditions: for Luminescence Raw1: replicate 1; for Luminescence Raw2: replicate 2; for IC50: Drosophila melanogaster, cytotoxicity
Procedure: as §1

[3] = system: MAGI cells; test: cytotoxicity in the anti-HIV assay (CC50); assay type: cell-based; conditions: for Cytotoxicity: single determinations
Source text: We examined the inhibitory activities of DDPs against various species of bacteria (both gram-negative and gram-positive bacteria), fungi and viruses. […] In contrast, preliminary screening of the DDPs for anti-viral agents with hepatitis B virus (HBV), measles virus (MV), Epstein-Barr virus (EBV), herpes simplex virus (HSV) and human immunodeficiency virus-1 (HIV-1) indicated their selective inhibition of HIV.
Policy information about cell lines […]
HeLa-CD4-LTR/ !-galactosidase (MAGI) cells provided by Dr. J. Overbaugh through the NIH AIDS Research and Reference […]
MAGI cells were authenticated by the NIH.
Mycoplasma contamination All the cell lines tested negative for mycoplasma contamination.
Commonly misidentified lines No commonly mis-identified cell lines. […]

[4] = system: MCF-7 cells; test: cell cytotoxic effects against MCF-7 cells (72 h), A490; assay type: cell-based, human; conditions: for viability at 0.1 µM / viability at 1 µM / viability at 10 µM: Homo sapiens, MCF7, 72 h, read-out: A490 (control =1) ave; for viability at 0.1 µM / viability at 1 µM / viability at 10 µM / A490 ave: MCF-7, 72 h
[5] = replicate 1, relative to DMSO 1%, read-out: % viability, viability 1
[6] = replicate 2, relative to DMSO 1%, read-out: % viability, viability 2
[7] = average of two replicates, read-out: IC50 Average
[8] = replicate 1, read-out: IC50 (1)
[9] = replicate 2, read-out: IC50 (2)
[10] = 0.1 µM (DMSO 0.002%), control 1.064
[11] = 1 µM (DMSO 0.02%), control 1.104
[12] = 10 µM (DMSO 0.2%), control 1.049

SMILES: C=C1CCC2C(C)(CCC=C(C)C)C(O)CCC2(C)C1Cc1c(OC)oc(CO)c(C(=O)OC)c1=O (stereo not shown) [Compound 13]
- viability at 0.04 µM [1, 5]: 144%
- viability at 0.04 µM [1, 6]: 152%
- viability at 0.2 µM [1, 5]: 160%
- viability at 0.2 µM [1, 6]: 139%
- viability at 1 µM [1, 5]: 157%
- viability at 1 µM [1, 6]: 122%
- viability at 4 µM [1, 5]: 90.9%
- viability at 4 µM [1, 6]: 79.1%
- viability at 10 µM [1, 5]: 20.9%
- viability at 10 µM [1, 6]: 24.3%
- viability at 20 µM [1, 5]: 10.9%
- viability at 20 µM [1, 6]: 9.4%
- Luminescence Raw1 ([2]; 0.04 µM): 3699578
- Luminescence Raw2 ([2]; 0.04 µM): 3900517
- Luminescence Raw1 ([2]; 0.2 µM): 4107234
- Luminescence Raw2 ([2]; 0.2 µM): 3571875
- Luminescence Raw1 ([2]; 1 µM): 4025701
- Luminescence Raw2 ([2]; 1 µM): 3137197
- Luminescence Raw1 ([2]; 4 µM): 2332844
- Luminescence Raw2 ([2]; 4 µM): 2029883
- Luminescence Raw1 ([2]; 10 µM): 535109
- Luminescence Raw2 ([2]; 10 µM): 623453
- Luminescence Raw1 ([2]; 20 µM): 280543
- Luminescence Raw2 ([2]; 20 µM): 241241
- IC50 [2, 7]: 8.46 µM
- IC50 ([2]; average±SEM, read-out: IC50): 8.46 ± 0.98 µM
- IC50 [2, 8]: 9.44 µM
- IC50 [2, 9]: 7.47 µM
- Cytotoxicity [3]: >10 µM
- viability at 0.1 µM ([4]; 0.1 µM (DMSO 0.002%)): 89.1%
- viability at 1 µM ([4]; 1 µM (DMSO 0.02%)): 106%
- viability at 10 µM ([4]; 10 µM (DMSO 0.2%)): 98.6%
- A490 ave [4, 10]: 0.948
- A490 ave [4, 11]: 1.176
- A490 ave [4, 12]: 1.034

SMILES: C=C1CCC2C(C)(CC(=O)C=C(C)C)C(O)CCC2(C)C1Cc1c(OC)oc(CO)c(C)c1=O (stereo not shown) [Compound 19]
- viability at 0.04 µM [1, 5]: 154%
- viability at 0.04 µM [1, 6]: 105%
- viability at 0.2 µM [1, 5]: 131%
- viability at 0.2 µM [1, 6]: 120%
- viability at 1 µM [1, 5]: 128%
- viability at 1 µM [1, 6]: 131%
- viability at 4 µM [1, 5]: 125%
- viability at 4 µM [1, 6]: 116%
- viability at 10 µM [1, 5]: 104%
- viability at 10 µM [1, 6]: 136%
- viability at 20 µM [1, 5]: 115%
- viability at 20 µM [1, 6]: 117%
- Luminescence Raw1 ([2]; 0.04 µM): 3944169
- Luminescence Raw2 ([2]; 0.04 µM): 2684872
- Luminescence Raw1 ([2]; 0.2 µM): 3351106
- Luminescence Raw2 ([2]; 0.2 µM): 3081647
- Luminescence Raw1 ([2]; 1 µM): 3286175
- Luminescence Raw2 ([2]; 1 µM): 3371307
- Luminescence Raw1 ([2]; 4 µM): 3215834
- Luminescence Raw2 ([2]; 4 µM): 2985337
- Luminescence Raw1 ([2]; 10 µM): 2665756
- Luminescence Raw2 ([2]; 10 µM): 3480969
- Luminescence Raw1 ([2]; 20 µM): 2956119
- Luminescence Raw2 ([2]; 20 µM): 3004455
- IC50 ([2]; average±SEM, read-out: IC50): > 20 µM
- Cytotoxicity Avg. ([3]; average of numeric determinations): 6.013 µM
- Cytotoxicity [3]: 6.158 µM and 7.239 µM and 4.642 µM
- viability at 0.1 µM ([4]; 0.1 µM (DMSO 0.002%)): 65%
- viability at 1 µM ([4]; 1 µM (DMSO 0.02%)): 110%
- viability at 10 µM ([4]; 10 µM (DMSO 0.2%)): 104%
- A490 ave [4, 10]: 0.691
- A490 ave [4, 11]: 1.209
- A490 ave [4, 12]: 1.093

SMILES: C=C1CC[C@H]2[C@]3(C)C[C@@H](C=C(C)C)O[C@H]3CC[C@]2(C)[C@@H]1Cc1c(O)c(C)c(C)oc1=O [Compound 5, subglutinol A]
- viability at 0.04 µM [1, 5]: 139%
- viability at 0.04 µM [1, 6]: 137%
- viability at 0.2 µM [1, 5]: 19.9%
- viability at 0.2 µM [1, 6]: 17%
- viability at 1 µM [1, 5]: 8.99%
- viability at 1 µM [1, 6]: 8.5%
- viability at 4 µM [1, 5]: 8.31%
- viability at 4 µM [1, 6]: 7.53%
- viability at 10 µM [1, 5]: 8.2%
- viability at 10 µM [1, 6]: 8.05%
- viability at 20 µM [1, 5]: 7.67%
- viability at 20 µM [1, 6]: 7.74%
- Luminescence Raw1 ([2]; 0.04 µM): 3571044
- Luminescence Raw2 ([2]; 0.04 µM): 3503586
- Luminescence Raw1 ([2]; 0.2 µM): 510842
- Luminescence Raw2 ([2]; 0.2 µM): 436923
- Luminescence Raw1 ([2]; 1 µM): 230676
- Luminescence Raw2 ([2]; 1 µM): 218056
- Luminescence Raw1 ([2]; 4 µM): 213369
- Luminescence Raw2 ([2]; 4 µM): 193177
- Luminescence Raw1 ([2]; 10 µM): 210485
- Luminescence Raw2 ([2]; 10 µM): 206518
- Luminescence Raw1 ([2]; 20 µM): 196783
- Luminescence Raw2 ([2]; 20 µM): 198586
- IC50 [2, 7]: 0.19 µM
- IC50 ([2]; average±SEM, read-out: IC50): 0.19 ± 0.01 µM
- IC50 [2, 8]: 0.194 µM
- IC50 [2, 9]: 0.18 µM
- Cytotoxicity [3]: >10 µM
- cytotoxicity against the bulk of MCF-7 cells [4]: dose-dependent cytotoxicity
- viability at 0.1 µM ([4]; 0.1 µM (DMSO 0.002%)): 45.9%
- viability at 1 µM ([4]; 1 µM (DMSO 0.02%)): 45.5%
- viability at 10 µM ([4]; 10 µM (DMSO 0.2%)): 8.4%
- A490 ave [4, 10]: 0.489
- A490 ave [4, 11]: 0.503
- A490 ave [4, 12]: 0.088

SMILES: C=C1CCC2C(C)(CCC=C(C)C)C(O)CCC2(C)C1Cc1c(OC)oc(C)c(C(=O)OC)c1=O (stereo not shown) [Compound 14]
- viability at 0.04 µM [1, 5]: 137%
- viability at 0.04 µM [1, 6]: 114%
- viability at 0.2 µM [1, 5]: 136%
- viability at 0.2 µM [1, 6]: 147%
- viability at 1 µM [1, 5]: 131%
- viability at 1 µM [1, 6]: 146%
- viability at 4 µM [1, 5]: 18.5%
- viability at 4 µM [1, 6]: 16%
- viability at 10 µM [1, 5]: 10.1%
- viability at 10 µM [1, 6]: 9.05%
- viability at 20 µM [1, 5]: 7.49%
- viability at 20 µM [1, 6]: 6.87%
- Luminescence Raw1 ([2]; 0.04 µM): 3506221
- Luminescence Raw2 ([2]; 0.04 µM): 2917163
- Luminescence Raw1 ([2]; 0.2 µM): 3483495
- Luminescence Raw2 ([2]; 0.2 µM): 3765235
- Luminescence Raw1 ([2]; 1 µM): 3358321
- Luminescence Raw2 ([2]; 1 µM): 3748640
- Luminescence Raw1 ([2]; 4 µM): 473811
- Luminescence Raw2 ([2]; 4 µM): 410710
- Luminescence Raw1 ([2]; 10 µM): 260351
- Luminescence Raw2 ([2]; 10 µM): 232227
- Luminescence Raw1 ([2]; 20 µM): 192204
- Luminescence Raw2 ([2]; 20 µM): 176340
- IC50 [2, 7]: 3.74 µM
- IC50 ([2]; average±SEM, read-out: IC50): 3.74 ± 0.14 µM
- IC50 [2, 8]: 3.6 µM
- IC50 [2, 9]: 3.88 µM
- Cytotoxicity [3]: >10 µM
- viability at 0.1 µM ([4]; 0.1 µM (DMSO 0.002%)): 74.8%
- viability at 1 µM ([4]; 1 µM (DMSO 0.02%)): 75.6%
- viability at 10 µM ([4]; 10 µM (DMSO 0.2%)): 19.7%
- A490 ave [4, 10]: 0.796
- A490 ave [4, 11]: 0.834
- A490 ave [4, 12]: 0.207

SMILES: C=C1CC[C@@H]2[C@](C)(CC[C@H]3O[C@H](C=C(C)C)C[C@@]23C)[C@@H]1Cc1c(OC)oc(CO)c(C)c1=O [Compound 20]
- viability at 0.04 µM [1, 5]: 95.7%
- viability at 0.04 µM [1, 6]: 102%
- viability at 0.2 µM [1, 5]: 106%
- viability at 0.2 µM [1, 6]: 112%
- viability at 1 µM [1, 5]: 71.1%
- viability at 1 µM [1, 6]: 80.9%
- viability at 4 µM [1, 5]: 1.55%
- viability at 4 µM [1, 6]: 2.17%
- viability at 10 µM [1, 5]: 1.88%
- viability at 10 µM [1, 6]: 1.76%
- viability at 20 µM [1, 5]: 1.4%
- viability at 20 µM [1, 6]: 2.05%
- Luminescence Raw1 ([2]; 0.04 µM): 6010744
- Luminescence Raw2 ([2]; 0.04 µM): 6416731
- Luminescence Raw1 ([2]; 0.2 µM): 6637959
- Luminescence Raw2 ([2]; 0.2 µM): 7047592
- Luminescence Raw1 ([2]; 1 µM): 4464964
- Luminescence Raw2 ([2]; 1 µM): 5080853
- Luminescence Raw1 ([2]; 4 µM): 97218
- Luminescence Raw2 ([2]; 4 µM): 136159
- Luminescence Raw1 ([2]; 10 µM): 118130
- Luminescence Raw2 ([2]; 10 µM): 110559
- Luminescence Raw1 ([2]; 20 µM): 87844
- Luminescence Raw2 ([2]; 20 µM): 128947
- IC50 [2, 7]: 1.45 µM
- IC50 ([2]; average±SEM, read-out: IC50): 1.45 ± 0.13 µM
- IC50 [2, 8]: 1.32 µM
- IC50 [2, 9]: 1.58 µM
- Cytotoxicity [3]: >10 µM
- cytotoxicity against the bulk of MCF-7 cells [4]: dose-dependent cytotoxicity
- viability at 0.1 µM ([4]; 0.1 µM (DMSO 0.002%)): 90%
- viability at 1 µM ([4]; 1 µM (DMSO 0.02%)): 45.3%
- viability at 10 µM ([4]; 10 µM (DMSO 0.2%)): 29.4%
- A490 ave [4, 10]: 0.958
- A490 ave [4, 11]: 0.500
- A490 ave [4, 12]: 0.308
